Laboratory results from article PMC8655505, “Stimulation of the Runx2 P1 promoter by collagen-derived dipeptide prolyl-hydroxyproline bound to Foxg1 and Foxo1 in osteoblasts” (Bioscience Reports, 2021).
Square brackets hold non-standard residues; d marks the D form. Peptide text beside a SMILES is read from it. Hyp = O=C(O)[C@@H]1C[C@@H](O)CN1

Molecular target: T1, Foxo1 (Mus musculus, UniProt Q9R1E0)
T1 construct: full-length
Assay: competition of free Pro-Hyp with (Pro-Hyp-Gly)5-linked magnetic beads, Western blot
Type: binding
Details: free Pro-Hyp 0.1 or 10 mM; pH 7.8, 150 mM KCl, 4 °C overnight; cell extract

T1 sequence (Q9R1E0 whole entry): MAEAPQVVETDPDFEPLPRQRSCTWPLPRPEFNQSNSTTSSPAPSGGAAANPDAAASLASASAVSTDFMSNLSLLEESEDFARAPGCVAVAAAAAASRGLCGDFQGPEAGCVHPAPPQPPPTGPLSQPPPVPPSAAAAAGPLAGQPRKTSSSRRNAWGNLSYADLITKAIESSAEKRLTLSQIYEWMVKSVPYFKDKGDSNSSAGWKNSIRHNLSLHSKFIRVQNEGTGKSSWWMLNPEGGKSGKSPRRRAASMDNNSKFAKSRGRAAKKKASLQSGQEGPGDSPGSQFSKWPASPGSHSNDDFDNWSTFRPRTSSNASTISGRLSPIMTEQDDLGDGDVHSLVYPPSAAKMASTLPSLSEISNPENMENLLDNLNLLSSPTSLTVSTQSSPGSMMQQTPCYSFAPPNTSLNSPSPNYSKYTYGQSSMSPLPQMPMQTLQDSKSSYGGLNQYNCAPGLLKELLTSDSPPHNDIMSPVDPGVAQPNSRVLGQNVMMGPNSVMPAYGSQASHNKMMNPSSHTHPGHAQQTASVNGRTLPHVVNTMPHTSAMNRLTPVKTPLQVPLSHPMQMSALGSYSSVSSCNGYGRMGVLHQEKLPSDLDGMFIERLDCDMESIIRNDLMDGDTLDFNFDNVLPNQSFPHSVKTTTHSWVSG

## O=C(O)[C@@H]1C[C@@H](O)CN1C(=O)[C@@H]1CCCN1 [Pro-Hyp] (H-Pro-[Hyp]-OH)
  competition of free Pro-Hyp with (Pro-Hyp-Gly)5-linked magnetic beads, Western b: These data suggest that Pro-Hyp binds to Foxo1.
